Measured values: patent publication US20260042731A1, “(2,4-DICHLOROPHENOXY)ACETIC ACID ANALOGS” (CORTEVA AGRISCIENCE LLC, priority 2022, published 2026)
“And” between values parts separate entries of the source, which are not always exact repeats. Identical values can stand only once. Like-named read-outs stand apart in the source and are kept apart here.

How the values were obtained:
[1] = tested on: glyphosate resistant Conyza canadensis (L.) (ERICA), horseweed; experiment: Postemergence herbicide evaluation, growth of Conyza canadensis (ERICA); type: in vivo; details: for Ave. ERICA, percent reduction in plant size relative to the untreated control: 21 DAA; for pest or weed control at 280 g/ha / pest or weed control at 560 g/ha: Erigeron canadensis, post-emergence, percent reduction in plant size relative to untreated control, read-out: Ave. ERICA
[2] = tested on: weeds (ABUTH, AMATA, AMBEL, CHEAL, ERICA); experiment: Postemergence herbicide evaluation, overall average % weed control across ABUTH, AMATA, AMBEL, CHEAL, ERICA; type: in vivo; details: post-emergence, average over the five weeds, read-out: Overall Ave % Weed Control; for pest or weed control at 280 g/ha: 280 g ae/ha; for pest or weed control at 560 g/ha: 560 g ae/ha
[3] = tested on: Abutilon theophrasti (ABUTH), velvetleaf; experiment: Postemergence herbicide evaluation, growth of Abutilon theophrasti (ABUTH); type: in vivo; details: for AVE. ABUTH, percent reduction in plant size relative to the untreated control: 21 DAA; for pest or weed control at 280 g/ha / pest or weed control at 560 g/ha: Abutilon theophrasti, post-emergence, percent reduction in plant size relative to untreated control, read-out: AVE. ABUTH
[4] = tested on: Amaranthus rudis (AMATA), tall water hemp; experiment: Postemergence herbicide evaluation, growth of Amaranthus rudis (AMATA); type: in vivo; details: for Ave. AMATA, percent reduction in plant size relative to the untreated control: 21 DAA; for pest or weed control at 280 g/ha / pest or weed control at 560 g/ha: Amaranthus tuberculatus, post-emergence, percent reduction in plant size relative to untreated control, read-out: Ave. AMATA
[5] = tested on: ABUTH, AMATA, AMBEL, CHEAL, ERICA weeds; experiment: Postemergence herbicide evaluation, overall average % weed control across ABUTH, AMATA, AMBEL, CHEAL, ERICA; type: in vivo; details: 21 DAA
Excerpt: For example, the pesticidal activity may include herbicidal activity.

[6] = tested on: Chenopodium album (CHEAL), common lambsquarters; experiment: Postemergence herbicide evaluation, growth of Chenopodium album (CHEAL); type: in vivo; details: for Ave. CHEAL, percent reduction in plant size relative to the untreated control: 21 DAA; for pest or weed control at 280 g/ha / pest or weed control at 560 g/ha: Chenopodium album, post-emergence, percent reduction in plant size relative to untreated control, read-out: Ave. CHEAL
[7] = tested on: Ambrosia artemisiifolia (AMBEL), common ragweed; experiment: Postemergence herbicide evaluation, growth of Ambrosia artemisiifolia (AMBEL); type: in vivo; details: for AVE. AMBEL, percent reduction in plant size relative to the untreated control: 21 DAA; for pest or weed control at 280 g/ha / pest or weed control at 560 g/ha: Ambrosia artemisiifolia, post-emergence, percent reduction in plant size relative to untreated control, read-out: AVE. AMBEL
[8] = Volatility of compounds measured by thermogravimetric analysis (TGA); type: physicochemical
[9] = tested on: Common Lambsquarters (CHEAL); experiment: Greenhouse post-emergence mixture trials, percent visual control; type: in vivo; details: CHEAL, 21 DAA
Tall Waterhemp (AMATA) = experiment: as above; type: in vivo; details: Trial Bridge 2, 21 DAA
Horseweed (ERICA) = experiment: as above; type: in vivo; details: 21 DAA
Corn (ZEAMX) = experiment: as above; type: in vivo; details: Trial Bridge 2, ZEAMX, 21 DAA
Velvetleaf (ABUTH) = experiment: as above; type: in vivo; details: Trial Bridge 2, ABUTH, 21 DAA, compound 0 g ae/ha
[10] = Trial Bridge 2, Trifludimoxazin 25 g ai or ae/ha alone (B2 rate 0)
[11] = Trial Bridge 2, Trifludimoxazin 50 g ai or ae/ha alone (B2 rate 0)
[12] = Trifludimoxazin 12.5 g ai or ae/ha alone (B2 rate 0)
[13] = Trifludimoxazin 25 g ai or ae/ha alone (B2 rate 0)
[14] = Trifludimoxazin 50 g ai or ae/ha alone (B2 rate 0)

## N/C(Cc1ccccc1)=N\OC(=O)COc1ccc(Cl)cc1Cl [Compound A17, N′-(2-(2,4-Dichlorophenoxy)acetoxy)-2-phenylacetimidamide]
[1]; 280 g ae/ha
  Ave. ERICA, percent reduction in plant size relative to the untreated control: 97%
[1]; 560 g ae/ha
  Ave. ERICA, percent reduction in plant size relative to the untreated control: 94%
[1]; 168 h, 280 g ae/ha, 7 DAA
  pest or weed control at 280 g/ha: 65%
[1]; 168 h, 560 g ae/ha, 7 DAA
  pest or weed control at 560 g/ha: 65%
[1]; 336 h, 280 g ae/ha, 14 DAA
  pest or weed control at 280 g/ha: 85%
[1]; 336 h, 560 g ae/ha, 14 DAA
  pest or weed control at 560 g/ha: 83%
[2]; 168 h, 7 DAA
  pest or weed control at 280 g/ha: 64%
  pest or weed control at 560 g/ha: 70%
[2]; 336 h, 14 DAA
  pest or weed control at 280 g/ha: 78%
  pest or weed control at 560 g/ha: 85%
[3]; 280 g ae/ha
  AVE. ABUTH, percent reduction in plant size relative to the untreated control: 65%
[3]; 560 g ae/ha
  AVE. ABUTH, percent reduction in plant size relative to the untreated control: 83%
[3]; 168 h, 280 g ae/ha, 7 DAA
  pest or weed control at 280 g/ha: 48%
[3]; 168 h, 560 g ae/ha, 7 DAA
  pest or weed control at 560 g/ha: 68%
[3]; 336 h, 280 g ae/ha, 14 DAA
  pest or weed control at 280 g/ha: 65%
[3]; 336 h, 560 g ae/ha, 14 DAA
  pest or weed control at 560 g/ha: 80%
[4]; 280 g ae/ha
  Ave. AMATA, percent reduction in plant size relative to the untreated control: 83%
[4]; 560 g ae/ha
  Ave. AMATA, percent reduction in plant size relative to the untreated control: 89%
[4]; 168 h, 280 g ae/ha, 7 DAA
  pest or weed control at 280 g/ha: 73%
[4]; 168 h, 560 g ae/ha, 7 DAA
  pest or weed control at 560 g/ha: 70%
[4]; 336 h, 280 g ae/ha, 14 DAA
  pest or weed control at 280 g/ha: 78%
[4]; 336 h, 560 g ae/ha, 14 DAA
  pest or weed control at 560 g/ha: 80%
[5]; 280 g ae/ha
  Overall Ave % Weed Control: 84%
[5]; 560 g ae/ha
  Overall Ave % Weed Control: 91%
[6]; 280 g ae/ha
  Ave. CHEAL, percent reduction in plant size relative to the untreated control: 85%
[6]; 560 g ae/ha
  Ave. CHEAL, percent reduction in plant size relative to the untreated control: 90%
[6]; 168 h, 280 g ae/ha, 7 DAA
  pest or weed control at 280 g/ha: 70%
[6]; 168 h, 560 g ae/ha, 7 DAA
  pest or weed control at 560 g/ha: 68%
[6]; 336 h, 280 g ae/ha, 14 DAA
  pest or weed control at 280 g/ha: 78%
[6]; 336 h, 560 g ae/ha, 14 DAA
  pest or weed control at 560 g/ha: 85%
[7]; 280 g ae/ha
  AVE. AMBEL, percent reduction in plant size relative to the untreated control: 92%
[7]; 560 g ae/ha
  AVE. AMBEL, percent reduction in plant size relative to the untreated control: 99%
[7]; 168 h, 280 g ae/ha, 7 DAA
  pest or weed control at 280 g/ha: 65%
[7]; 168 h, 560 g ae/ha, 7 DAA
  pest or weed control at 560 g/ha: 80%
[7]; 336 h, 280 g ae/ha, 14 DAA
  pest or weed control at 280 g/ha: 86%
[7]; 336 h, 560 g ae/ha, 14 DAA
  pest or weed control at 560 g/ha: 96%
[8]
  TGA Data (rate of weight loss, volatility): 4.1 µg/min

## C#CCN1C(=O)C(F)(F)Oc2cc(F)c(-n3c(=O)n(C)c(=S)n(C)c3=O)cc21 [Trifludimoxazin, trifludimoxazin]
[9]; Trial Bridge 2, Trifludimoxazin 12.5 g ai or ae/ha alone (B2 rate 0)
  % Control: 100%
[9]; [10]
  % Control: 100%
[9]; [11]
  % Control: 100%
Tall Waterhemp (AMATA); [12]
  % Control: 100%
Tall Waterhemp (AMATA); [13]
  % Control: 100%
Tall Waterhemp (AMATA); [14]
  % Control: 100%
Horseweed (ERICA); [10]
  % Control: 25% and 30%
Horseweed (ERICA); [11]
  % Control: 30% and 25%
Corn (ZEAMX); [12]
  % Control: 5% and 10%
Corn (ZEAMX); [13]
  % Control: 15% and 5% and 10%
Corn (ZEAMX); [14]
  % Control: 15% and 20% and 10%
Velvetleaf (ABUTH); Trifludimoxazin alone 12.5 g ai or ae/ha
  % Control: 100%
Velvetleaf (ABUTH); Trifludimoxazin alone 25 g ai or ae/ha
  % Control: 100%
Velvetleaf (ABUTH); Trifludimoxazin alone 50 g ai or ae/ha
  % Control: 100%
